Laboratory results: patent US20070027634A1, “Molecular hepatotoxicology modeling” (priority 2002, published 2007)

Assays:
[1] = cited from earlier work
[2] = cited from earlier work; remark: listed apart in the source
[3] = in vivo; cited from earlier work
[4] = Serum clinical chemistry of dosed rats (studies by the present inventors); settings: AY-25329; as early as 6 hours after the first dose; 14 day study
[5] = Light microscopic analysis of liver and kidney of dosed rats (present inventors)
[6] = dogs, after treatment; cited from earlier work
[7] = rat liver mitochondria; cited from earlier work
[8] = cited from earlier work; remark: listed apart in the source
[9] = rats and mice; cited from earlier work
[10] = mice; cited from earlier work
rat hepatocytes = settings: cited from earlier work
[11] = rats and hamsters; cited from earlier work
[12] = hamster livers; cited from earlier work
[13] = test system: human hepatoma cell lines; settings: cited from earlier work
[14] = in vivo; cited from earlier work; remark: listed apart in the source
[15] = 14 days of repeated dosing, 250 mg/kg/day
[16] = male Sprague Dawley rats, 0.1, 1, 2, 3, 4 mL/kg ip, […] po
[17] = male Sprague Dawley rats, peak within 48 hours post dose
[18] = acute administration, male rats

Q: Which results are given for `CC(=O)Nc1ccc2c(c1)Cc1ccccc1-2` [2-AAF, 2-acetylaminofluorene]?
A: ALT (alanine aminotransferase) level in serum or plasma ([1]; rats): elevated; AST (aspartate aminotransferase) level in serum or plasma ([1]; rats): elevated; liver finding (pathology) ([2]; rats): cirrhosis-like changes in the liver

Q: Which results are given for `C#C[C@]1(O)CC[C@H]2[C@@H]3CCc4cc(O)ccc4[C@H]3CC[C@@]21C` [17α-ethinylestradiol]?
A: plasma cholesterol level ([1]; male rats): decrease; plasma level of bile salts ([1]; male rats): not changed; plasma level of bilirubin ([1]; male rats): not changed; plasma triglyceride level ([1]; male rats): decrease; ALT (alanine aminotransferase) level in serum or plasma ([1]; rats): not changed; AST (aspartate aminotransferase) level in serum or plasma ([1]; rats): not changed; activity of liver enzyme alkaline phosphatase ([2]; male rats): initially showed significant increases, but enzyme levels decreased after 3 days; activity of liver enzyme leucine aminopeptidase ([2]; male rats): initially showed significant increases, but enzyme levels decreased after 3 days; bile flow ([2]; male rats): decrease; bilirubin output ([2]; male rats): increased; glutathione (GSH) output ([2]; male rats): decreased; liver finding (pathology) ([2]; rats): reversible intrahepatic cholestasis; liver weight ([2]; rats): increase

Q: Which activity of catalase [3] does the source give for `S=C=Nc1cccc2ccccc12` [ANIT, α-naphthylisothiocyanate] here?
A: The activity of catalase was “decreased”.

Q: What about the “activity of superoxide dismutase” value [3] of the same compound?
A: The value was “decreased”.

Q: And the “serum glutamic oxaloacetic transaminase” value [3]?
A: The value was “increase”.

Q: And the “serum glutamic pyruvic transaminase” value [3]?
A: Its value is “increase”.

Q: And the “serum level of alkaline phosphatase” value [3]?
A: Its value is “increase”.

Q: And the “serum level of total bilirubin” value [3]?
A: The value was “increase”.

Q: And the total bile flow [3]?
A: Its total bile flow is “reduced”.

Q: Which results are given for `O=C(CCN1CCN2CCCC2C1)N1c2ccccc2Sc2ccc(Cl)cc21` (stereo not drawn) [AY-25329]?
A: serum level of ALT [4]: statistically significant increases; serum level of BUN [4]: statistically significant increases; serum level of cholesterol [4]: statistically significant increases; serum level of creatinine [4]: statistically significant increases; serum level of triglycerides [4]: statistically significant increases; kidney finding [5, 15]: nephrosis; liver finding [5, 15]: alterations in the peripheral lobes of the liver and in the cytoplasm of hepatocytes; hepatocytic mitotic figures (light microscopy) ([5]; liver, 6 and 24 hours): increased number; liver glycogen content (light microscopy) ([5]; liver, 6 and 24 hours): decreased

Q: What does the source list for `ClC(Cl)(Cl)Cl` [CCl4, carbon tetrachloride]?
A: serum α-glutathione s-transferase (α-GST) level ([1]; male SD rats, 25 μL/kg po, as early as 2 hours after administration): Significant increases; time after administration within which ALT level increases [1, 16]: ≤ 3 h; time after administration within which AST level increases [1, 16]: ≤ 3 h; peak increase of ALT level [1, 17]: 5-10 fold; peak increase of AST level [1, 17]: 5-10 fold; time of peak centrilobular necrosis and inflammatory infiltration ([2]; acute administration, male rats, post dose): 24 to 48 h; time to cytoplasmic accumulation of lipids in hepatocytes [2, 18]: 1 to 3 h; time to focal necrosis and hydropic swelling of hepatocytes [2, 18]: 5 to 6 h; time to full restoration of the liver [2, 18]: ≤ 14 days

Q: With `Cl.Nc1nc2c(Cc3ccsc3)c[nH]c2c(=O)[nH]1.O` [CI-1000, 4H-pyrrolo:3,2-d:pyrimidin-4-one, 2-amino-3,5-dihydro-7-(3-thienylmethyl)-monohydrochloride monohydrate] as the compound, how does the “serum ALT level” value [6] read?
A: Its value is “increased”.

Q: What does the source list for `CC(=O)O[C@]1(C(C)=O)CC[C@H]2[C@@H]3C=C(Cl)C4=CC(=O)[C@@H]5C[C@@H]5[C@]4(C)[C@H]3CC[C@@]21C` [CPA, Cyproterone acetate]?
A: time after which continuous DNA repair activity was observed ([2]; rats, single oral dose): 16 h; occurrence of S phase cells in rat liver ([2]; rats): increased

Q: With `CN(C)N=O` [DMN, dimethylnitrosamine] as the compound, how does the “ALT (alanine aminotransferase) level in serum or plasma” value ([1]; rats) read?
A: The value was “increased”.

Q: What about the “serum SOD” value ([1]; rats) of the same compound?
A: Its value is “decreased”.

Q: And the “serum malondialdehyde (MDA)” value ([1]; rats)?
A: The value was “increased”.

Q: What about the “hydroxyproline levels (indicator of fibrosis)” value ([2]; rats) of the same compound?
A: Its value is “elevated”.

Q: What about the “liver finding (pathology)” value ([2]; rats) of the same compound?
A: Its value is “severe centrilobular congestion and haemorrhagic necrosis”.

Q: With `Cc1cccc(Nc2cc(Cl)nc(SCC(=O)O)n2)c1C` [Wy-14643] as the compound, how does the oxidative phosphorylation [7] read?
A: The oxidative phosphorylation was “capable of uncoupling oxidative phosphorylation”.

Q: Which “ALT (alanine aminotransferase) level in serum or plasma” value ([1]; rats) does the source give for `CC(=O)Nc1ccc(O)cc1` [acetaminophen] here?
A: The value was “statistically significant elevations”.

Q: And the “AST (aspartate aminotransferase) level in serum or plasma” value ([1]; rats)?
A: The value was “statistically significant elevations”.

Q: And the “liver finding (pathology)” value ([2]; rats)?
A: Its value is “hepatocellular necrosis”.

Q: What about the “time after dosing at which hepatotoxicity can be observed” value ([2]; rats) of the same compound?
A: Its value is 24 h.

Q: Which “levels of CYP3A1” value ([2]; rats) does the source give for `CC(O)(CS(=O)(=O)c1ccc(F)cc1)C(=O)Nc1ccc(C#N)c(C(F)(F)F)c1` (stereo not drawn) [bicalutamide] here?
A: The value was “elevated levels”.

Q: And the “ALT / glutamic-pyruvic transaminase (GPT) level” value ([8]; humans)?
A: Its value is “elevated levels”.

Q: And the “AST / glutamic-oxalacetic transaminase (GOT) level” value ([8]; humans)?
A: The value was “elevated levels”.

Q: And the “alkaline phosphatase (AL-P) level” value ([8]; humans)?
A: The value was “elevated levels”.

Q: And the “gamma guanosine 5′-triphosphate (gamma-GTP) level” value ([8]; prostate cancer patients)?
A: Its value is “elevated levels”.

Q: With `ClC(Cl)Cl` [chloroform, Chloroform] as the compound, how does the “time to cytoplasmic accumulation of lipids in hepatocytes” value [2, 18] read?
A: The value was 1 to 3 h.

Q: What about the “time to focal necrosis and hydropic swelling of hepatocytes” value [2, 18] of the same compound?
A: Its value is 5 to 6 h.

Q: What about the “level of BUN” value [9] of the same compound?
A: The value was “increased levels”.

Q: And the level of phosphatidyl-ethanolamine [9]?
A: Its level of phosphatidyl-ethanolamine is “decreased levels”.

Q: And the “level of serum creatinine” value [9]?
A: The value was “increased levels”.

Q: What about the “level of tissue glutathione (GSH)” value [9] of the same compound?
A: Its value is “decreased levels”.

Q: And the “levels of 5-methylcytosine and of the methylated c-myc gene” value [10]?
A: Its value is “Decreased levels”.

Q: What about the “markers of hepatocellular regeneration (alpha-fetoprotein, retinol-binding protein, gamma-glutamyl transferase and des-gamma-carboxyprothrombin)” value ([8]; humans, poisoning) of the same compound?
A: The value was “increased levels”.

Q: What about the “alkaline phosphatase (AL-P) level” value ([8]; humans) of the same compound?
A: Its value is “decreased levels”.

Q: What does the source list for `CCOC(=O)C(C)(C)Oc1ccc(Cl)cc1` [clofibrate]?
A: levels of copper in neoplastic liver tissues ([2]; rat study of liver hyperplasia and liver tumors): increased levels; liver finding (pathology) ([2]; rats): hepatocellular hypertrophy, cellular proliferation, hepatomegaly, induction of CYP450 isozymes, and induction of palmitoyl CoA oxidation

Q: For `O=C(O)c1cc(-c2ccc(F)cc2F)ccc1O` [diflunisal], which “LDH (lactic acid dehydrogenase) leakage” value (rat hepatocytes; rat hepatocytes) is on record?
A: The value was “increase”.

Q: What about the “intracellular ATP” value (rat hepatocytes; rat hepatocytes) of the same compound?
A: The value was “decreased”.

Q: With `Cc1ccc(C)c(OCCCC(C)(C)C(=O)O)c1` [gemfibrozil] as the compound, how does the DT-diaphorase activity [11] read?
A: Its DT-diaphorase activity is “increase”.

Q: And the alpha-tocopherol [11]?
A: The alpha-tocopherol was “decrease”.

Q: Which results are given for `NN` [hydrazine, Hydrazine]?
A: liver finding (pathology) ([2]; rats): induction of fatty liver; liver weight ([2]; rats): increases; GSH (rat hepatocytes; rat hepatocytes): depletion; LDH (lactic acid dehydrogenase) leakage (rat hepatocytes; rat hepatocytes): leakage; intracellular ATP (rat hepatocytes; rat hepatocytes): depletion; rate of protein synthesis (rat hepatocytes; rat hepatocytes): decreased; viability (rat hepatocytes; rat hepatocytes): dose-dependent loss; hepatic adenomas and carcinomas [12]: developed in a dose-dependent manner

Q: With `COc1ccc2c(c1)c(CC(=O)O)c(C)n2C(=O)c1ccc(Cl)cc1` [indomethacin] as the compound, how does the “liver and renal microsomal enzymes, including CYP450” value ([2]; rats, single dose) read?
A: Its value is “reduce”.

Q: Which “liver finding (pathology)” value ([2]; rats) does the source give for `Cl.Nc1c2c(nc3ccccc13)CCCC2` [tacrine, 1,2,3,4-tetrahydro-9-aminoacridine-hydrochloride] here?
A: Its value is “have not shown a correlation between tacrine exposure and hepatotoxicity”.

Q: And the cytotoxicity (rat hepatocytes; primary rat hepatocytes)?
A: The cytotoxicity was “displayed cytotoxicity”.

Q: What about the cytotoxicity [13] of the same compound?
A: The cytotoxicity was “displayed cytotoxicity”.

Q: What does the source list for `CC(=N)S` [thioacetamide, Thioacetamide]?
A: ALT (alanine aminotransferase) level in serum or plasma ([1]; rats): elevated levels; AST (aspartate aminotransferase) level in serum or plasma ([1]; rats): elevated levels; serum BUN ([1]; rats): elevated levels; serum TNFα ([1]; rats): elevated levels; serum creatinine ([1]; rats): elevated levels; serum total bilirubin ([1]; rats): elevated levels

Q: For `CCCC(CCC)C(=O)O` [valproate, n-dipropylacetic acid], which “liver finding (pathology)” value ([2]; rats) is on record?
A: Its value is “microvesicular steatosis”.

Q: What about the “amounts of acyl-CoA esters” value (rat hepatocytes; cultured rat hepatocytes) of the same compound?
A: Its value is “increased amounts”.

Q: What about the “LDH (lactic acid dehydrogenase) leakage” value (rat hepatocytes; rat hepatocytes) of the same compound?
A: The value was “dose-dependent leakage”.

Q: What about the “share of patients with elevated levels of hepatic enzymes” value ([8]; patients) of the same compound?
A: The value was “about 40%”.

Q: With `CC(c1cc2ccccc2s1)N(O)C(N)=O` (stereo not drawn) [zileuton] as the compound, how does the “levels of liver peroxisomal palmitoyl CoA oxidase” value [14] read?
A: Its value is “elevated levels”.

Q: What about the “levels of microsomal cytochromes P450 2B and P450 4A” value [14] of the same compound?
A: The value was “elevated levels”.

Q: What about the liver size [14] of the same compound?
A: Its liver size is “hepatomegaly”.
